This note sets out measurements from patent US11465978B2, “Anthranilic amides and the use thereof” (THE ADMINISTRATORS OF THE TULANE EDUCATIONAL FUND, priority 2013, dated 2022).

One data set relates to MDA-MB 231 cells. The data set can be described thus: Crystal violet proliferation study. It counts as cell-based. On the procedure: FIG. 11 is a graph showing the results of MDA-MB 231 proliferation studies. MDA-MB 231 cells were used as they express the triple negative cancer phenotype. Compound 3 was selected due to potency in inhibition of both MEK1/2 and MEK5. MDA-MB 231 cells were plated at 10,000 cells per well in a 96 well TC plate in 5% Charcoal-Dextran stripped media and incubated overnight at 37° C. in 5% CO2. The cells were treated with drug or vehicle the following day. Plates were harvested on days 3, 5 and 7 and stained with Crystal Violet. […] The cells were washed, lysed, and the absorbance of Crystal Violet sequestered in living cells was determined at […]. Wells were conducted in duplicate. Experiments were run in triplicate. Cells were normalized to initial cell count.
Proliferation studies were conducted using MDA-MB 231 cells, as they express the triple negative cancer phenotype. […] The cells were washed, lysed, and the absorbance of Crystal Violet sequestered in living cells was determined at […]. […]
Triple-negative breast cancer (TNBC) cells MDA-MB-231 were seeded in 96-well plates at a density of 2,000 cells per well in 5% charcoal-stripped phenol free DMEM, allowed to attach overnight, and subsequently treated with DMSO and MEK inhibitor compounds in duplicate. […] Cells were washed, lysed with 33% acetic acid, and the absorbance was read at 630 nm in a Biotek Synergy plate reader. […]

For a further data set, the system named is pERK5. The data set can be described thus: Western blot, inhibition of EGF-mediated formation of pERK5 in MDA-MB-231 cells. It counts as cell-based. The protocol:
FIG. 9 is a set of bar graphs showing a Western blot analysis of potential MEK5 inhibitors. The MDA-MB-231 triple negative breast cancer cell line was pretreated with compounds (10 μM) for 30 minutes followed by stimulation with epidermal growth factor (EGF, 50 ng/mL) for 15 minutes. Vehicle-treated cells were pretreated with DMSO for 30 minutes prior to EGF stimulation for 15 minutes. Protein visualization and quantification analysis were performed using LI-COR Odyssey Imager. * P<0.05 vs. Vehicle, one-way ANOVA followed by Tukey-Kramer test (n=3).
A number of compounds were tested for their potential as MEK5 inhibitors. The MDA-MB-231 triple negative breast cancer cell line was pretreated with 10 μM of compounds 24, 9b, 9a, 9c, 9e, 9f, 9d, 9h, 23, 7, and 15 for 30 minutes followed by stimulation with epidermal growth factor (EGF, 50 ng/mL) for 15 minutes. Vehicle-treated cells and known MEK1/2 inhibitor cells were pretreated with DMSO and U0126 respectively for 30 minutes prior to EGF stimulation for 15 minutes. Protein visualization and quantification analysis was performed using LI-COR Odyssey Imager. The results of the Western blot analysis are shown in FIG. 9. * P<0.05 vs. Vehicle, one-way ANOVA followed by Tukey-Kramer test (n=3).
MDA-MB-231 cells were grown on 10 cm cell culture plates [Sarstedt] in Dulbecco's Modified Eagle's Medium (DMEM; Gibco) with Ham's F12 Nutrient Mixture (1:1) (Invitrogen), 10% heat-inactivated FBS [Atlanta Biological and 0.5% penicillin/streptomycin [Gibco]. Cells were maintained at 37° C. with 5% CO2. Plating of the cells was done 36 hours before treatment in 35 mm culture plates [Sarstedt] and allowed to reach confluence. To test MEK-5 inhibitors, the cells were treated with epidermal growth factor (EGF; Sigma-Aldrich) 30 min after treatment with the compounds. 15 min after the addition of EGF, the cells were washed with 1×PBS [Sigma-Aldrich] and then lysed in 1% Triton X-100 buffer containing 20 mM Tris (pH 6.8), 137 mM NaCl, 25 mM beta glycerophosphate, 2 mM NaPPi, 2 mM EDTA, 1 mM Na3VO4, 10% glycerol, 5 μg/mL leupeptin, 5 μg/mL aprotinin, 2 mM benzamidine, 0.5 mM DTT, and 1 mM PMSF. The lysates were then centrifuged at 10,000 rpm for 10 min at 4° C.
Total protein content was assessed by Bradford Bio-Rad protein assay (Cat. No. 500-0006, Bio-Rad, Hercules, Calif.) and 30 μg of protein was loaded on a 8% SDS-PAGE gel for phosphorylated and total ERK1/2 and ERK5 proteins. After running the samples, gels were transferred to a nitrocellulose membrane (Cat. No. 926-31092, Licor Biosciences, Lincoln, Nebr.). After transfer, membranes were washed for 5 min with 1×PBS and blocked for 1 h in a Casein Blocking Buffer (Cat. No. 927-40200, Licor Biosciences) at room temperature. Membranes were then incubated overnight at 4° C. in primary antibody in CBB with 0.2% Tween-20. Antibodies included rabbit anti-phospho-ERK1/2 (Dilution—1:1000, Cat. No. 9101, Cell Signaling, Beverly, Mass.), mouse anti-total ERK1/2 (Dilution—1:1000, Cat. No. 9107, Cell Signaling), and rabbit anti-total ERK5 (Dilution—1:1,000, Cat. No. 3372, Cell Signaling). Mouse anti-α-Tubulin (Dilution—1:10,000, Cat. No. T5168, Sigma-Aldrich) was used as a loading control. After incubation with primary antibody, blots were washed in 1×PBS solution with 0.2% Tween-20 (1×PBS-T) and incubated with goat anti-rabbit (Dilution—1:10,000, Cat. No. 926-68021, LICOR Biosciences) and goat anti-mouse (Dilution—1:10,000, Cat. No. 926-32210, LICOR Biosciences) secondary antibodies for 1 h at room temperature. After washing the membranes with 1×PBS-T, the protein bands were visualized on an Odyssey Infrared Imager and quantified with Odyssey software (LICOR Biosciences).
(Immunoblotting shows a protein as a band on a membrane.)

Consider `NC(=O)c1ccc(F)c(F)c1Nc1ccc(I)cc1F` [Compound 3, 3,4-difluoro-2-((2-fluoro-4-iodophenyl)amino)benzamide], for which the “reduction in growth relative to untreated (DMSO)” value in the data set on MDA-MB 231 cells (7 day time point) is on record as 70%. Also, the overt cell death result with MDA-MB 231 cells (even at saturation concentrations) is given as “No overt cell death”. For the same compound, the “pERK-5 decrease (%)” value in the data set on pERK5 (Example 3 table, DMSO = 0, MDA-MB-231, EGF stimulation) came to 59%. Further, the inhibition at 10 µM in the data set with pERK5 (Homo sapiens, MDA-MB-231, Table 1, MDA-MB-231, compounds 10 μM 30 min, then EGF 50 ng/mL 15 min, read-out: cellular pERK5 decrease (%)) stood at 56.5%.
